Assay results reported in ChEMBL document CHEMBL1909046, “DrugMatrix in vitro pharmacology data”.

Experiments:
[1] = biological target: D(3) dopamine receptor (Homo sapiens, UniProt P35462); assay: DRUGMATRIX: Dopamine D3 radioligand binding (ligand: [3H] Spiperone); assay type: cell membranes, CHO, Membrane; conditions: cho
[2] = DRUGMATRIX: beta-Lactamase enzyme inhibition (substrate: Nitrocefin); parameters: species or system Bacillus cereus; conditions: Not Active = under 50% inhibition at 10 µM
[3] = biological target: Histamine H2 receptor (Homo sapiens, UniProt P25021); assay type: cell membranes, CHO-K1, Membrane; conditions: cho-k1; also: in other assays of this panel Not Active means under 50% inhibition at 10 µM
Histamine H2 receptor, sequence (P25021 whole entry): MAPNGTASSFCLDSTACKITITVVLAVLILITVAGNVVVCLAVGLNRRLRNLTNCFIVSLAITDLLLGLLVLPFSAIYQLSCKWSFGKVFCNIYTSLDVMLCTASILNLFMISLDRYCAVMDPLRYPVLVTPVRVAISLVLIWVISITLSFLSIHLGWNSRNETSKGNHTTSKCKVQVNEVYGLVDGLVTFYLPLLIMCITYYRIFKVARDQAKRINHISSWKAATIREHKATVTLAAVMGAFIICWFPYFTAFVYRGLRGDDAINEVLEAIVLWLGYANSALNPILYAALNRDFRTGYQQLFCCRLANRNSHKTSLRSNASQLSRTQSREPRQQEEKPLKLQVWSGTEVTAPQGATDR

[4] = DRUGMATRIX: GABAA, Chloride Channel, TBOB radioligand binding (ligand: [3H] TBOB); assay type: cell membranes, Rattus norvegicus, Wistar, Cerebral cortex, Membrane; conditions: Not Active = under 50% inhibition at 10 µM
[5] = DRUGMATRIX: Glutamate, AMPA radioligand binding (ligand: [3H] AMPA); assay type: cell membranes, Rattus norvegicus, Wistar, Cerebral cortex, Membrane; conditions: Not Active = under 50% inhibition at 10 µM
[6] = biological target: T1, C-X-C chemokine receptor type 1 (Homo sapiens, UniProt P25024); also: in other assays of this panel Not Active means under 50% inhibition at 10 µM
T1 sequence (P25024 whole entry): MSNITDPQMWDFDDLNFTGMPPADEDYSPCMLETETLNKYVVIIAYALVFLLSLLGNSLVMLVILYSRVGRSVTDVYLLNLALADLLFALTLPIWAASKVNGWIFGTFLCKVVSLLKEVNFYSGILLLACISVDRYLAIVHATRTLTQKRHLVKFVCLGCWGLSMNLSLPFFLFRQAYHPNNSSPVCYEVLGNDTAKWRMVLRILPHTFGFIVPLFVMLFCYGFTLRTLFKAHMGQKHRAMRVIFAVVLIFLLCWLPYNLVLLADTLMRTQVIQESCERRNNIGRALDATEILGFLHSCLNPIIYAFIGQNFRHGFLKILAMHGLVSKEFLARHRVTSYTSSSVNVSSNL

[7] = biological target: Sodium-dependent noradrenaline transporter (Homo sapiens, UniProt P23975); assay: DRUGMATRIX: Norepinephrine Transporter radioligand binding (ligand: [125I] RTI-55); assay type: cell membranes, MDCK, Membrane; conditions: mdck; Not Active = under 50% inhibition at 10 µM
Sodium-dependent noradrenaline transporter, sequence (P23975 whole entry): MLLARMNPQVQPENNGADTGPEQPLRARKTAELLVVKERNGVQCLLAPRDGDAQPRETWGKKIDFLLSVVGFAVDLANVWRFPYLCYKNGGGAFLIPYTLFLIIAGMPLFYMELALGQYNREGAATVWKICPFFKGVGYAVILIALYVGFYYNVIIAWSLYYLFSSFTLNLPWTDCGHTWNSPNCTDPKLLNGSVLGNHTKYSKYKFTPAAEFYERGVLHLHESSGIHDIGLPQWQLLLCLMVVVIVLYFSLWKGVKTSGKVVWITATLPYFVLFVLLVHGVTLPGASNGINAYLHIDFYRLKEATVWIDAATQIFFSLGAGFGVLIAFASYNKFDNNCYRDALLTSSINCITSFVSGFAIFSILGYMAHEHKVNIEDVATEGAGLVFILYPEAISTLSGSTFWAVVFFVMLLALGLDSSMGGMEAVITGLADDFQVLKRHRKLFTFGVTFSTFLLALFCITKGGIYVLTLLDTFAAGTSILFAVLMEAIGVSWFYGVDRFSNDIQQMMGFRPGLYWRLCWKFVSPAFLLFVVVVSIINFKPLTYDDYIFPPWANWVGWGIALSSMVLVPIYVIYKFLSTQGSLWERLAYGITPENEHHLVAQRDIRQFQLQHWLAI

[8] = biological target: Glycine receptor (Rattus norvegicus, UniProt P22771+P24524+P07727+P20781); assay type: cell membranes, Wistar, Spinal cord, Membrane; also: in other assays of this panel Not Active means under 50% inhibition at 10 µM
[9] = biological target: 5-hydroxytryptamine receptor 2B (Homo sapiens, UniProt P41595); assay type: cell membranes, CHO-K1, Membrane; also: in other assays of this panel Not Active means under 50% inhibition at 10 µM
5-hydroxytryptamine receptor 2B, sequence (P41595 whole entry): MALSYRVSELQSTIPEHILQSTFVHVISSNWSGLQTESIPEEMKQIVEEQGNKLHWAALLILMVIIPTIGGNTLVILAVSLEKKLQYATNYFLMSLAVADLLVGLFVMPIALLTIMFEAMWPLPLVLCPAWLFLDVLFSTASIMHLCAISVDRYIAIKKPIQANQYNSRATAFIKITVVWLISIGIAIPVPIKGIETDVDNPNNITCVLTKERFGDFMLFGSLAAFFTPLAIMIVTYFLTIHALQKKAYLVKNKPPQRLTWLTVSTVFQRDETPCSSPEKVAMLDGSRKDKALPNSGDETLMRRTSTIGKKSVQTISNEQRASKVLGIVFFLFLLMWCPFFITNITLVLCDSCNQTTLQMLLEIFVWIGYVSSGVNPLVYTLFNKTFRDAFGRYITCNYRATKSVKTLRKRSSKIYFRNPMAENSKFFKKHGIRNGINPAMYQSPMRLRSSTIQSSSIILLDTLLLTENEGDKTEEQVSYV

[10] = biological target: 5-hydroxytryptamine receptor 6 (Homo sapiens, UniProt P50406); assay type: cell membranes, HeLa, Membrane; conditions: hela; also: in other assays of this panel Not Active means under 50% inhibition at 10 µM
5-hydroxytryptamine receptor 6, sequence (P50406 whole entry): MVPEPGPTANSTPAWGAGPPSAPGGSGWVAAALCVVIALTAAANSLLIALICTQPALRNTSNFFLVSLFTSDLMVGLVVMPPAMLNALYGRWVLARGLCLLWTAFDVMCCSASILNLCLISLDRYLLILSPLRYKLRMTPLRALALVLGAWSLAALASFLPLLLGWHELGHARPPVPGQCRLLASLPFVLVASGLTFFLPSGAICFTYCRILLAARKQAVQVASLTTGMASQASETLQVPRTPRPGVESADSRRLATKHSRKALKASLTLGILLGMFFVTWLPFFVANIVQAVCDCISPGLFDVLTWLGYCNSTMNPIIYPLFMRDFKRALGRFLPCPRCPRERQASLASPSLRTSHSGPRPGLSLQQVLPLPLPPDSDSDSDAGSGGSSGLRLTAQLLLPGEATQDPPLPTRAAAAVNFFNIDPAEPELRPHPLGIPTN

[11] = DRUGMATRIX: Glutamate, Kainate radioligand binding (ligand: [3H] Kainic acid); assay type: cell membranes, Rattus norvegicus, Wistar, Brain, Membrane; conditions: Not Active = under 50% inhibition at 10 µM
[12] = biological target: Beta-3 adrenergic receptor (Homo sapiens, UniProt P13945); assay: DRUGMATRIX: Adrenergic beta3 radioligand binding (ligand: [125I] Cyanopindolol); assay type: cell membranes, HEK293, Membrane; conditions: hek293; Not Active = under 50% inhibition at 10 µM
Beta-3 adrenergic receptor, sequence (P13945 whole entry): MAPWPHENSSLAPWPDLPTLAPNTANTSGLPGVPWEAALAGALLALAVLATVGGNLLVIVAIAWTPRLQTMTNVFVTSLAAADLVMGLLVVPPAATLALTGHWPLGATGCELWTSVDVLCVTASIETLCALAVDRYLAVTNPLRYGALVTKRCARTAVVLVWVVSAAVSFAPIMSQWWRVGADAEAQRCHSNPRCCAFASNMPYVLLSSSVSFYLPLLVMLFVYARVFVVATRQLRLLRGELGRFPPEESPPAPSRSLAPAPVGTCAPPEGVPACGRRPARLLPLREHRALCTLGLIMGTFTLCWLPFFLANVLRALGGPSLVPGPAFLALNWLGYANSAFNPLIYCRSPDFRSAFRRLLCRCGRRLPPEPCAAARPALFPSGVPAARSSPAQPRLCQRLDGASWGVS

[13] = DRUGMATRIX: Platelet-Derived Growth Factor (PDGF) radioligand binding (ligand: [125I] PDGF); assay type: cell-based; conditions: nih3t3; Not Active = under 50% inhibition at 10 µM
[14] = biological target: T2, Thromboxane-A synthase (Homo sapiens, UniProt P24557); assay: biochemical; assay type: tissue-based, Platelet; conditions: platelet
T2 sequence (P24557 whole entry): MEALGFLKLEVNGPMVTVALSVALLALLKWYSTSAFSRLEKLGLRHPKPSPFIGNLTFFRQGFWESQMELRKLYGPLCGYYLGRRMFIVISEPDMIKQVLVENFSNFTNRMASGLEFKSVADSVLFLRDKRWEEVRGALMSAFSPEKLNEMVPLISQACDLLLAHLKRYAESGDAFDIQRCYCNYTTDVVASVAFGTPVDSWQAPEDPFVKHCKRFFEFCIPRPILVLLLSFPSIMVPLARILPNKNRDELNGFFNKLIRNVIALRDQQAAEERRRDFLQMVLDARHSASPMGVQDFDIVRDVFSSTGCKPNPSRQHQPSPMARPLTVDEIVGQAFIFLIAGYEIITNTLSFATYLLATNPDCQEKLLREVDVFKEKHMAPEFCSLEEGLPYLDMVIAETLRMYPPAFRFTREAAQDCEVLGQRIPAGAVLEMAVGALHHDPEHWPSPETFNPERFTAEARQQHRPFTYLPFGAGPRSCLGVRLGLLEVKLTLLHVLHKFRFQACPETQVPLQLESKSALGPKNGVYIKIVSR

[15] = DRUGMATRIX: Imidazoline I2, Central radioligand binding (ligand: [3H] Idazoxan); assay type: cell membranes, Rattus norvegicus, Wistar, Cerebral cortex, Membrane; conditions: Not Active = under 50% inhibition at 10 µM
[16] = DRUGMATRIX: Sodium/nucleoside co-transporter radioligand binding (ligand: nitrobenzylthioinosine); assay type: cell membranes, Cavia porcellus, Dunkin-Hartley, Cerebral cortex, Membrane; conditions: Not Active = under 50% inhibition at 10 µM
[17] = biological target: T3, D(4) dopamine receptor (Homo sapiens, UniProt P21917); assay: DRUGMATRIX: Dopamine D4.2 radioligand binding (ligand: [3H] Spiperone); assay type: cell membranes, CHO-K1, Membrane; conditions: cho-k1; Not Active = under 50% inhibition at 10 µM
T3 sequence (P21917 whole entry): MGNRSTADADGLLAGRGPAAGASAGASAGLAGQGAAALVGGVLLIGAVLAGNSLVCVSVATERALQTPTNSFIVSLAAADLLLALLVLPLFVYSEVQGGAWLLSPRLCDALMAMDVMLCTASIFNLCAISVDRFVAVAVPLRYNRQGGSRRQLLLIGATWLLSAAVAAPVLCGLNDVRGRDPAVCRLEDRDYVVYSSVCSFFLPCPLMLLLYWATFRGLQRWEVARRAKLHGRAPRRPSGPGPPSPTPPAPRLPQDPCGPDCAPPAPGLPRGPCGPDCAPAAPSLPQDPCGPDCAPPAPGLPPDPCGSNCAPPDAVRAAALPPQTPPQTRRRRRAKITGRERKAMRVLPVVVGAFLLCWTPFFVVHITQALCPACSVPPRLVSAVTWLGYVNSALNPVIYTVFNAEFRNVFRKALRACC

D(3) dopamine receptor, sequence (P35462 whole entry): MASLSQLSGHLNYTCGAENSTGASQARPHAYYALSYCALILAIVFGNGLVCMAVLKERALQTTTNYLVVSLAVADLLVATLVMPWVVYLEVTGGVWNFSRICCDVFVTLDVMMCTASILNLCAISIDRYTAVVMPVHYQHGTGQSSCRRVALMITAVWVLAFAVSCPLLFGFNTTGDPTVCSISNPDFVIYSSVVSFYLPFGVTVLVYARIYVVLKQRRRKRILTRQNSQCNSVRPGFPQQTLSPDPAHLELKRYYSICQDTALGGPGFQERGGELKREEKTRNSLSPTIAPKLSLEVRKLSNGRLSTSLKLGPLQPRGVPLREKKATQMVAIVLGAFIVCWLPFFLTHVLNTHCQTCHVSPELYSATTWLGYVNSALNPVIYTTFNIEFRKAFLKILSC

Row | SMILES | IC50 [1] | IC50 [2] | Ki [2] | IC50 [3] | IC50 [4] | Ki [4] | IC50 [5] | Ki [5] | IC50 [6] | IC50 [7] | IC50 [8] | IC50 [10] | IC50 [11] | Ki [11] | IC50 [12] | IC50 [13] | Ki [13] | IC50 [14] | IC50 [15] | Ki [15] | also measured
1 | COC(=O)[C@H](c1ccccc1Cl)N1CCc2sccc2C1 [CLOPIDOGREL] | Not Active | Not Active | Not Active | Not Active | Not Active | Not Active | Not Active | Not Active | Not Active | Not Active | Not Active | Not Active | Not Active | Not Active | Not Active | Not Active | Not Active | Not Active | Not Active | Not Active | IC50 ([9]; cho-k1): Not Active; IC50 [16]: Not Active; Ki [16]: Not Active; IC50 [17]: Not Active
2 | C[C@]12CCC(=O)C=C1CC[C@@H]1[C@@H]2C(=O)C[C@@]2(C)[C@H]1CC[C@]2(O)C(=O)CO [CORTISONE] | Not Active | Not Active | Not Active | Not Active | Not Active | Not Active | Not Active | Not Active | Not Active | Not Active | Not Active | Not Active | Not Active | Not Active | Not Active | Not Active | Not Active | Not Active | Not Active | Not Active | IC50 ([9]; cho-k1): Not Active; IC50 [16]: Not Active; Ki [16]: Not Active; IC50 [17]: Not Active
3 | Cc1ccccc1N1CCN(CCc2nnc3n2CCCC3)CC1 [DAPIPRAZOLE] | Not Active | Not Active | Not Active | Not Active | Not Active | Not Active | Not Active | Not Active | Not Active | Not Active | Not Active | Not Active | Not Active | Not Active | Not Active | Not Active | Not Active | Not Active | Not Active | Not Active | IC50 ([9]; read-out: IC50): 1060 nM; Ki ([9]; read-out: Ki): 672 nM; IC50 [16]: Not Active; Ki [16]: Not Active; IC50 [17]: Not Active
4 | CC1=Nc2ccc(Cl)cc2S(=O)(=O)N1 [DIAZOXIDE] | Not Active | Not Active | Not Active | Not Active | Not Active | Not Active | Not Active | Not Active | Not Active | Not Active | Not Active | Not Active | Not Active | Not Active | Not Active | Not Active | Not Active | Not Active | Not Active | Not Active | IC50 ([9]; cho-k1): Not Active; IC50 [16]: Not Active; Ki [16]: Not Active; IC50 [17]: Not Active
5 | CC(=O)OCC(=O)[C@@]1(OC(C)=O)[C@@H](C)C[C@H]2[C@@H]3C[C@H](F)C4=CC(=O)C=C[C@]4(C)[C@@]3(F)[C@@H](O)C[C@@]21C [DIFLORASONE DIACETATE] | Not Active | Not Active | Not Active | Not Active | Not Active | Not Active | Not Active | Not Active | Not Active | Not Active | Not Active | Not Active | Not Active | Not Active | Not Active | Not Active | Not Active | Not Active | Not Active | Not Active | IC50 ([9]; cho-k1): Not Active; IC50 [16]: Not Active; Ki [16]: Not Active; IC50 [17]: Not Active
